Assay results published in US8613905B2, “Diagnostic agent” (United Arab Emirates University, priority 2007, dated 2013).
“Also recorded” adds a separate entry of the source.

Legend:
[1] = target: T1, fresh or aggregated α-synuclein (Homo sapiens, UniProt P37840); assay: ELISA: binding of biotinylated peptides to coated α-synuclein; details: for binding to coated aggregated α-synuclein: aggregated α-synuclein coated at 500 pmol/well, data not shown; for binding to aggregated versus fresh α-synuclein: range of peptide concentrations, FIG. 3A, B; for binding to aggregated versus fresh α-synuclein / lowest binding concentration detected: α-synuclein coated at 100 pmol/well; for binding to coated fresh and aggregated α-synuclein: α-synuclein coated 20-200 pmol/well, peptides 200 pmol/well, FIG. 2
T1 construct: made in house; host or cells: Escherichia coli
Description: Various concentrations of fresh, or aggregated α-synuclein solutions (20-200 pmol/well) were coated on a microtiter plate to dry overnight at 37° C. Aggregated α-synuclein was therefore fixed to the microtiter plate. Aggregated α-synuclein was produced either by aging, dopamine treatment or nitration as indicated on the figures. After washing with PBS containing 0.05% Tween-20 (PBST) and blocking with blocking buffer (PBS containing 2.5% gelatin and 0.05% Tween-20), the biotinylated peptides (200 pmol/well in PBS) or BSA protein (negative control) were added and incubated for 1.5 hrs at room temperature (RT).
Binding of peptides to α-synuclein was quantified using enzyme-linked avidin. Briefly, the plates were washed three times with PBST before the addition of 100 μl/well of extravidin peroxidase diluted at 1:5,000 in blocking buffer. Plates were then washed three times with PBST before the addition of TMB peroxidase substrate. Plates were left for 15 minutes at RT for colour to develop. The reaction was stopped by addition 100 μl/well of 0.5M sulphuric acid and the plates were read at 450 nm in a spectrophotometer.
The effect of peptide concentration on binding to a fixed concentration of α-synuclein was tested by coating microtiter plates as above with 100 or 200 pmol/well of α-synuclein. […] The lowest binding concentration detected for both peptides was 10 pmol/well. […] The lowest binding concentration detected for all three peptides was 10 pmol/well. The binding properties of peptides 6 & 7 to coated fresh or aged α-synuclein were also tested. The binding for peptides 6&7 was detectable when aggregated α-synuclein was coated at 500 pmol/well (data not shown).
The lowest binding concentration detected for dopamine treated α-synuclein was 1 pmol/well. Dopamine treated and nitrated α-synuclein are physiological approximations of the soluble aggregates (or adducts) present during the early stages of synucleinopathic diseases.

[2] = test system: SH-SY5Y neuroblastoma cells; assay: Uptake of peptides into living neuronal cells (confocal microscopy); type: cell-based, human; details: peptides at 50 μM
Description: SH-SY5Y or M17 neuroblastoma cells were grown in 15 ml medium in confluent flasks before splitting each suspension into petri dishes and allowing cells to grow on coverslips (˜5×10^3/plate) until the next day. Cells were then incubated with different peptides at 50 μM in growing media (total volume=2 ml). […] After 15 min incubation with respective peptides, the cells were washed 3 times with PBS. 2 ml of fixing solution (4% paraformaldehyde in PBS) was added to the cells which were then incubated for 30 min at room temperature. Fixing buffer was removed and 2 ml of permeabilization buffer (0.2% Triton-X-100 in PBS) was added to the cells for 30 min at room temperature and then removed. 2 ml of Blocking buffer was added, left for 1 hour at RT and then removed before addition of 1:100 FITC [Avidin labelled Fluorescein] (Vector Labs) in blocking buffer. Cells were incubated for 1 hour and then washed twice with PBS 0.05% tween. The coverslips were removed and plated with the cell bearing surface downwards on a glass slide, with the addition of a drop of mounting medium (Dako Cytomation). Cells were then visualized under the confocal microscope.

[3] = target: T2, α-synuclein aggregates in TET-off regulated SH-SY5Y cells expressing A53T (Homo sapiens, UniProt P37840, A53T); assay: Binding to α-synuclein aggregates in cell model; type: cell-based; details: 5 μM for 1, 2 & 4 hrs respectively (OR5, 6, 7); FIG. 13
T2 construct: expressed in transfected cells; host or cells: inducible TET-off regulated SH-SY5Y cells (from Dr. Kostas Vekrellis)
Description: This example utilises the inducible TET-off regulated SH-SY5Y system from Dr. Kostas Vekrellis (Foundation For Biomedical Research Academy of Athens). These transfected cells have shown to produce both soluble and insoluble aggregates of α-synuclein. The binding of the OR compounds to α-synuclein aggregates was investigated in this cell model.
Cells expressing A53T were grown on coverslips in media without doxycycline and were differentiated for 7 days by adding retinoic acid at 10 μM. On day 6, cells were treated with 1 μM MG132 in media containing retinoic acid for 24 hrs. The biotinylated-OR5, 6 and 7 were added to the media at 5 μM for 1, 2 & 4 hrs respectively at 37° C.
The media for the cells was then changed with fresh media without peptides and then incubated for another 15 mins for the cells to clear up the unbound peptides to α-synuclein aggregates. The cells were fixed and then treated with 0.2% Triton X in PBS for 15 minutes at RT, and after washing with PBS the blocking buffer, 0.5% BSA, was added.
The cells were stained with anti-α-synuclein antibodies (MAb 211 or FL-140 (Santa Cruz Biotechnology)), and with Streptavidin-FITC (Sigma). α-synuclein aggregates were detected after staining with anti-mouse TRITC (Sigma) or anti-rabbit TRITC (Jackson ImmunoResearch Inc.) as appropriate.

aggregated α-synuclein = target: T3, aggregated α-synuclein (Homo sapiens, UniProt P37840); assay: Immunogold assay (EM) on preformed α-synuclein aggregates; type: binding; details: 50 μM aggregated α-synuclein on grids; FIG. 6
T3 construct: made in house; host or cells: Escherichia coli
Description: Copper grids were placed on 50 μl of 50 μM aggregated α-synuclein for 1 hour and then washed on 50 μl of PBS for 2 minutes before being placed on 50 μl blocking buffer (Vector) for 1 hour 30 minutes. Grids were washed 5 times with PBS (5 minutes each) and then soaked in either […] peptide 5 (in blocking buffer) or blocking buffer only (negative control) for 1 hour 30 minutes at room temperature. Grids were then washed 5 times with PBS (5 minutes each) and soaked in 50 μl of streptavidin-gold label (1:50) in blocking buffer for 30 minutes at room temperature. Grids were again washed 5 times with PBS (5 minutes each) and soaked in 50 μl of uranyl acetate (2% in distilled water) for 1 minute at room temperature before viewing under a transmission electron microscope.

[4] = target: T1, fresh or aggregated α-synuclein; assay: ELISA: coated peptides capturing free α-synuclein; type: binding; details: peptides coated 100 pmol/well; α-synuclein 0.001-200 pmol/well; FIG. 4
Description: Peptides (100 pmol/well) were coated on a microtiter plate to dry overnight at 37° C. The peptides were therefore fixed to the microtiter plate. After washing with PBS containing 0.05% Tween 20 (PBST) and blocking with blocking buffer (PBS containing 2.5% gelatin and 0.05% Tween 20), various concentrations (0.001-200 pmol/well) of fresh or aggregated α-synuclein solution (produced by aging), or BSA protein (negative control) were added and incubated for 1.5 hrs at RT.
Binding of α-synuclein to peptides was quantified using enzyme-linked antibody specific for α-synuclein. Briefly, the plates were washed three times with PBST before addition of the polyclonal rabbit α-synuclein antibody FL-140 at 1:1000 (in PBS). Plates were then washed three times with PBST before the addition of TMB peroxidase substrate. Plates were left for 15 min at RT for colour to develop. The reaction was stopped by addition 100 μl/well of 0.5M sulphuric acid and the plates were read at 450 nm in a spectrophotometer.

[5] = target: T4, oligomeric α-synuclein (dopamine treated α-synuclein) (Homo sapiens, UniProt P37840); assay: Dot blotting of biotinylated peptides on α-synuclein; type: binding; details: FIG. 11
T4 construct: made in house; host or cells: Escherichia coli
Description: The binding of the peptides to the oligomeric α-synuclein was also tested using dot blotting. Monomeric α-synuclein (fresh α-synuclein solution) and oligomeric α-synuclein (dopamine treated α-synuclein) was spotted onto a nitrocellulose membrane. After the samples had been dried at room temperature for 2 hrs, the membranes were blocked, and then anti-α-synuclein MAb 211 or biotinylated-peptides were added to the membranes and incubated for 1.5 hr at room temperature. After gentle washing the membranes were treated with Extravidin-peroxidase or anti-mouse-peroxidase as appropriate. The binding of 211 and the peptides was detected using ECL reagents (Pierce). As shown in FIG. 11 the biotinylated-peptides bind specifically to the oligomeric but not monomeric forms of α-synuclein.

**Q.** What does the source list for “Gd-DOTA-r-Sar-vva-Sar-K(biotin)-butadiamine [OR6]”?
**A.** binding to coated aggregated α-synuclein [1]: detectable; incubation after which observed in living cells [2]: 2 h; binding to α-synuclein aggregates formed inside cells [3]: bind to α-synuclein aggregates formed inside cells

**Q.** What does the source list for “Gd-DOTA-r-Sar-vva-Sar-K(biotin)-pentadiamine [OR7]”?
**A.** binding to preformed α-synuclein aggregates (streptavidin-gold, EM) (aggregated α-synuclein): bind to preformed α-synuclein aggregates; also recorded: binding; binding to coated aggregated α-synuclein [1]: detectable; incubation after which observed in living cells [2]: 4 h; binding to α-synuclein aggregates formed inside cells [3]: bind to α-synuclein aggregates formed inside cells

**Q.** With “Gd-DOTA-r-Sar-vva-Sar-K(biotin)-rrrrrr [OR5]” as the substance, how does the “binding to preformed α-synuclein aggregates (streptavidin-gold, EM)” value (aggregated α-synuclein) read?
**A.** The value was “bind to preformed α-synuclein aggregates; also recorded: binding”.

**Q.** What about the “binding to aggregated α-synuclein generated by aging, dopamine treatment or nitration” value ([1]; FIG. 5) of the same substance?
**A.** Its value is “highly specific binding to all forms of aggregated α-synuclein”.

**Q.** What about the “specificity for dopamine treated α-synuclein” value ([1]; FIG. 5) of the same substance?
**A.** Its value is “particularly high specificity”.

**Q.** And the “lowest binding concentration detected for dopamine treated α-synuclein” value ([1]; dopamine treated α-synuclein (soluble aggregates))?
**A.** The value was 1 pmol/well.

**Q.** And the “capture of aggregated versus fresh α-synuclein by coated peptide” value [4]?
**A.** The value was “captured more of the aggregated than the fresh α-synuclein”.

**Q.** What about the “binding to α-synuclein aggregates formed inside cells” value [3] of the same substance?
**A.** Its value is “bind to α-synuclein aggregates formed inside cells”.

**Q.** And the “binding to oligomeric versus monomeric α-synuclein (dot blot)” value [5]?
**A.** The value was “binding of biotinylated-peptide OR5 to α-synuclein oligomers”.

**Q.** How did the “binding to aggregated versus fresh α-synuclein” value [1] turn out when Gd-DOTA-rGtvvaGK(biotin)-rrrrrr [OR1] was run?
**A.** The value was “more binding to the aggregated than to the fresh α-synuclein”.

**Q.** What about the “binding to coated fresh and aggregated α-synuclein” value [1] of the same substance?
**A.** The value was “high binding to both fresh and aggregated coated α-synuclein”.

**Q.** What about the “lowest binding concentration detected” value [1] of the same substance?
**A.** Its value is 10 pmol/well.

**Q.** How did the “binding to aggregated versus fresh α-synuclein” value [1] turn out when Gd-DOTA-rGvvaGK(biotin)-rrrrrr [OR2] was run?
**A.** The value was “more binding to the aggregated than to the fresh α-synuclein”.

**Q.** What about the “binding to coated fresh and aggregated α-synuclein” value [1] of the same substance?
**A.** The value was “high binding to both fresh and aggregated coated α-synuclein”.

**Q.** And the “lowest binding concentration detected” value [1]?
**A.** Its value is 10 pmol/well.

**Q.** How did the “binding to coated fresh and aggregated α-synuclein” value [1] turn out when Gd-DOTA-rrrrrrGtvvaGK(biotin)-r [OR3] was run?
**A.** Its value is “more specific binding to the aggregated α-synuclein”.

**Q.** Gd-DOTA-rrrrrrGvvaGK(biotin)-r [OR4] was tested. Which “binding to coated fresh and aggregated α-synuclein” value [1] did it give?
**A.** The value was “more specific binding to the aggregated α-synuclein”.

**Q.** What about the “capture of aggregated versus fresh α-synuclein by coated peptide” value [4] of the same substance?
**A.** The value was “captured more of the aggregated than the fresh α-synuclein”.
